Experimental data reported in US20110009335A1, “Anticancer Treatments” (priority 2008, published 2011).
Starred links: 1 amine or outer side, 2 acyl side, 3 side chain; linkers in the order of their positions; H or OH if unused. Positions of bridges follow the written chain, without caps; N, C: chain ends. Non-standard residues stand in square brackets, D forms with d. Residues, ends and D or L forms follow the SMILES beside them. *: point of attachment. X1 = CC[C@H](C)[C@@H](N[*:1])[C@@H](O)CC(=O)O[C@H](C(=O)[C@H](C)C(=O)[*:2])C(C)C; NMeY = CN[C@@H](Cc1ccc(O)cc1)C(=O)O; dNMeL = CN[C@H](CC(C)C)C(=O)O; Pyruvoyl = CC(=O)C(=O)*

Key:
[1] = test system: HepG2 human hepatoma xenograft; assay: Aplidine with sorafenib, HepG2 xenograft in athymic nude mice (Example 6); type: in vivo; details: for antitumor activity as single agent (monotherapy): doses tested; for % Inhibition G4: sorafenib 30 mg/kg/day; for % Inhibition G3: sorafenib 60 mg/kg/day; for % Inhibition G2: aplidine 0.06 mg/kg/day
Experimental: Female athymic nude mice (Harlan Sprague Dawley, Madison, Wis.) were utilized for all experiments. Mice were implanted with a cell suspension when mice were 6-8 weeks of age. Animals were housed in ventilated rack caging with food and water ad libitum. The mice were acclimated for at least 5 days prior to tumor implantation.
The tumor model used in this study was HepG2, which is a human hepatoma cell line obtained from the ATCC (Manassas, Va.). HepG2 cells were grown in MEM medium, 10% FBS, 1.5 g/l sodium bicarbonate, 0.1 mM non-essential amino acids, 1.0 mM sodium pyruvate and 2 mM L-glutamine. Cells from in vitro passage 4-20 were implanted SC into study mice: 5×10^6 cells/mouse in 0.2 ml 50% Matrigel/50% medium without antibiotics or serum, using a 23 G needle and 1 cc syringe. Bacterial cultures were performed on aliquots of the cells prepared for implantation.
Tumor measurements were determined as disclosed in Example 1. When tumor growth was within an average size range of 130±44 mg (mean±SD), mice were randomized into the treatment and control groups based on tumor weight by using LabCat® In Life module V 8.0 SP1 tumor tracking and measurement software.
The treatment of HepG2-tumor-bearing mice was initiated on DPI (Day Post Implantation) 19. Body weights were recorded on treatment days and when tumor sizes were measured. In those days wherein the two drugs were administered the same day, the combination therapy groups were treated by co-administering the two drugs at the same time, with no attempt to sequence the treatments.
(§1) Aplidine was provided in the form of vials of lyophilized aplidine powder which was reconstituted in Cremophor EL/ethanol/water (CEW) 15/15/70 to a concentration of 0.5 mg/ml. The aplidine solution in CEW was diluted in 0.9% Saline to the dosing formulation concentrations, being the final proportion of CEW of 0.18/0.18/0.84.
Tumor size measurements were recorded twice weekly from the treatment initiation until the termination of the study.
(§2) Mean, standard deviation and standard error of the mean were determined for tumor volume for all animal groups at all assessments. Student's t test was performed on tumor volumes at each measurement day, including at the end of the study, to determine whether there were any statistically significant differences between combination treatment groups and single monotherapy treatment groups.
(§3) The definition and criteria for the evaluation of potentiation and the degree of additivity for the combination therapy were the same as those disclose in Example 1.

[2] = test system: MRI-H-121 human renal tumor xenograft; assay: Aplidine with temsirolimus, MRI-H-121 xenograft in athymic nude mice (Example 3); type: in vivo; details: for % Inhibition G2: aplidine 0.06 mg/kg/day; for antitumor activity as single agent (monotherapy): doses tested, temsirolimus 10 and 20 mg/kg/day
Experimental: Female athymic nude mice (Harlan Sprague Dawley, Madison, Wis.) were utilized for all experiments. Mice were implanted with tumor fragments when mice were 5 weeks of age. Animals were housed in ventilated rack caging, 5 mice per cage, with food and water ad libitum. The mice were acclimated for 1 week prior to being implanted with tumor fragments.
Tumor measurements were determined as disclosed in Example 1. When tumor growth was within an average size range of 95±1.6 mg (mean±SD), mice were randomized into the treatment and control groups based on tumor weight by using LabCat® In Life module V 8.0 SP1 tumor tracking and measurement software.
Body weights were recorded on treatment days and when tumor sizes were measured. In those days wherein the two drugs were administered the same day, the combination therapy groups were treated by co-administering the two drugs at the same time, with no attempt to sequence the treatments.
as §1
Temsirolimus was provided in the form of vials containing a non-aqueous, ethanolic, sterile solution of temsirolimus, 25 mg/ml. […] Then, the solution was further diluted in 0.9% Saline to the dosing formulation concentrations.
Tumor size measurements were recorded twice weekly from the treatment initiation until the termination of the study. Tumor growth inhibition was assessed comparing the mean tumor weight between the two agents in combination (aplidine and temsirolimus) against temsirolimus mean tumor weight at the different concentrations assayed.
as §2, §3

[3] = G2: aplidine 0.060 mg/kg/day IP

For `CNC(=O)c1cc(Oc2ccc(NC(=O)Nc3ccc(Cl)c(C(F)(F)F)c3)cc2)ccn1` [sorafenib], the “% T/C on day 19” value ([1]; G3: sorafenib 60 mg/kg/day PO) was 88.8%, the “% T/C on day 22” value ([1]; G3: sorafenib 60 mg/kg/day PO) was 78.7% and the “% T/C on day 26” value ([1]; G3: sorafenib 60 mg/kg/day PO) was 60.1%. For the same compound, the “% T/C on day 30” value ([1]; G3: sorafenib 60 mg/kg/day PO) was 61.8%, the “% T/C on day 33” value ([1]; G3: sorafenib 60 mg/kg/day PO) was 66.2% and the “% T/C on day 19” value ([1]; G4: sorafenib 30 mg/kg/day PO) was 101.4%. The “% T/C on day 22” value ([1]; G4: sorafenib 30 mg/kg/day PO) was 123.5%, the “% T/C on day 26” value ([1]; G4: sorafenib 30 mg/kg/day PO) was 91.3% and the “% T/C on day 30” value ([1]; G4: sorafenib 30 mg/kg/day PO) was 100.9%. The “antitumor activity as single agent (monotherapy)” value (from here on “antitumor activity”) [1] was “inactive”, the “% Inhibition G4” value ([1]; day 22) was −23.5% and the “% Inhibition G4” value ([1]; day 26) was 8.7%. For the same compound, the “% Inhibition G4” value ([1]; day 30) was −0.9%, the “% Inhibition G4” value ([1]; day 33) was 9.6% and the “% Inhibition G3” value ([1]; day 19) was 11.2%. For the same compound, the “% Inhibition G3” value ([1]; day 26) was 39.9%, the “% Inhibition G3” value ([1]; day 30) was 38.2% and the “% Inhibition G3” value ([1]; day 33) was 33.8%.

With `CC[C@H](C)[C@H]1NC(=O)[C@@H](NC(=O)[C@@H](CC(C)C)N(C)C(=O)[C@@H]2CCCN2C(=O)C(C)=O)[C@@H](C)OC(=O)[C@H](Cc2ccc(OC)cc2)N(C)C(=O)[C@@H]2CCCN2C(=O)[C@H](CC(C)C)NC(=O)[C@@H](C)C(=O)[C@H](C(C)C)OC(=O)C[C@@H]1O` [aplidine, dehydrodidemnin B] (Pyruvoyl-P[dNMeL]T[X1]LP[NMeY](Me); ester 3-C) the “% Inhibition G2” value ([2]; day 12) was 1.7%, the “% Inhibition G2” value ([2]; day 15) was −9.0% and the “% Inhibition G2” value ([2]; day 19) was 15.1%. For the same compound, the “% Inhibition G2” value ([2]; day 22) was 6.0%, the “% Inhibition G2” value ([2]; day 27) was 13.7% and the “% Inhibition G2” value ([2]; day 30) was 2.5%. For the same compound, the “% Inhibition G2” value ([2]; day 34) was 3.0%, the “% Inhibition G2” value ([2]; day 37) was 5.0% and the “% Inhibition G2” value ([2]; day 40) was −7.6%. The “% Inhibition G2” value ([2]; day 47) was −1.6%, the “antitumor activity” value [2] was “refractory” and the “% T/C on day 19” value [1, 3] was 95.9%. The “% T/C on day 22” value [1, 3] was 97.0%, the “% T/C on day 26” value [1, 3] was 66.7% and the “% T/C on day 30” value [1, 3] was 76.9%. The “% T/C on day 33” value [1, 3] was 91.0%, the “% Inhibition G2” value ([1]; day 19) was 4.1% and the “% Inhibition G2” value ([1]; day 22) was 3.0%. For the same compound, the “% Inhibition G2” value ([1]; day 26) was 33.3%, the “% Inhibition G2” value ([1]; day 30) was 23.1% and the “% Inhibition G2” value ([1]; day 33) was 9.0%. For the same compound, the “antitumor activity” value [1] was “inactive”.

With `CO[C@H]1C[C@@H]2CC[C@@H](C)[C@@](O)(O2)C(=O)C(=O)N2CCCC[C@H]2C(=O)O[C@H]([C@H](C)C[C@@H]2CC[C@@H](OC(=O)C(C)(CO)CO)[C@H](OC)C2)CC(=O)[C@H](C)/C=C(\C)[C@@H](O)[C@@H](OC)C(=O)[C@H](C)C[C@H](C)/C=C/C=C/C=C/1C` [temsirolimus] the “antitumor activity” value [2] was “very sensitive”, the “% Inhibition G3” value ([2]; temsirolimus 10 mg/kg/day, day 12) was 4.2% and the “% Inhibition G3” value ([2]; temsirolimus 10 mg/kg/day, day 15) was 37.8%. For the same compound, the “% Inhibition G3” value ([2]; temsirolimus 10 mg/kg/day, day 19) was 57.7%, the “% Inhibition G3” value ([2]; temsirolimus 10 mg/kg/day, day 22) was 54.3% and the “% Inhibition G3” value ([2]; temsirolimus 10 mg/kg/day, day 27) was 61.7%. The “% Inhibition G3” value ([2]; temsirolimus 10 mg/kg/day, day 30) was 63.1%, the “% Inhibition G3” value ([2]; temsirolimus 10 mg/kg/day, day 34) was 67.4% and the “% Inhibition G3” value ([2]; temsirolimus 10 mg/kg/day, day 37) was 64.2%. For the same compound, the “% Inhibition G3” value ([2]; temsirolimus 10 mg/kg/day, day 40) was 57.5%, the “% Inhibition G3” value ([2]; temsirolimus 10 mg/kg/day, day 47) was 56.2% and the “% Inhibition G3” value ([2]; temsirolimus 20 mg/kg/day, day 12) was 2.3%. For the same compound, the “% Inhibition G3” value ([2]; temsirolimus 20 mg/kg/day, day 15) was 33.2%, the “% Inhibition G3” value ([2]; temsirolimus 20 mg/kg/day, day 19) was 58.5% and the “% Inhibition G3” value ([2]; temsirolimus 20 mg/kg/day, day 22) was 64.9%. The “% Inhibition G3” value ([2]; temsirolimus 20 mg/kg/day, day 27) was 72.6%, the “% Inhibition G3” value ([2]; temsirolimus 20 mg/kg/day, day 30) was 71.5% and the “% Inhibition G3” value ([2]; temsirolimus 20 mg/kg/day, day 34) was 73.7%. The “% Inhibition G3” value ([2]; temsirolimus 20 mg/kg/day, day 37) was 71.6%, the “% Inhibition G3” value ([2]; temsirolimus 20 mg/kg/day, day 40) was 71.5% and the “% Inhibition G3” value ([2]; temsirolimus 20 mg/kg/day, day 47) was 73.0%.
